Experimental data taken from PubChem BioAssay AID1259407 (Chemical Carcinogenesis Research Information System (CCRIS), 2018).
Activity calls are given as the source filed them. How the calls were made is not given here.

Test system: CCRIS mutagenicity, Ames/micronucleus/aberration tests
Test: CCRIS mutagenicity studies
[1] = Test System: AMES SALMONELLA TYPHIMURIUM, Strain/Indicator: TA100, Metabolic Activation: NONE, Method: STANDARD PLATE
[2] = Test System: AMES SALMONELLA TYPHIMURIUM, Strain/Indicator: TA1537, Metabolic Activation: NONE, Method: STANDARD PLATE
[3] = Test System: AMES SALMONELLA TYPHIMURIUM, Strain/Indicator: TA98, Metabolic Activation: NONE, Method: STANDARD PLATE
[4] = Test System: AMES SALMONELLA TYPHIMURIUM, Strain/Indicator: TA98, Metabolic Activation: RAT, LIVER, S-9, AROCLOR 1254, Method: STANDARD PLATE
[5] = Test System: AMES SALMONELLA TYPHIMURIUM, Strain/Indicator: TA100, Metabolic Activation: RAT, LIVER, S-9, AROCLOR 1254, Method: STANDARD PLATE
[6] = Test System: AMES SALMONELLA TYPHIMURIUM, Strain/Indicator: TA1535, Metabolic Activation: NONE, Method: STANDARD PLATE
[7] = Test System: AMES SALMONELLA TYPHIMURIUM, Strain/Indicator: TA1535, Metabolic Activation: RAT, LIVER, S-9, AROCLOR 1254, Method: STANDARD PLATE
[8] = Test System: AMES SALMONELLA TYPHIMURIUM, Strain/Indicator: TA1537, Metabolic Activation: RAT, LIVER, S-9, AROCLOR 1254, Method: STANDARD PLATE
[9] = Test System: AMES SALMONELLA TYPHIMURIUM, Strain/Indicator: TA1538, Metabolic Activation: NONE, Method: STANDARD PLATE
[10] = Test System: AMES SALMONELLA TYPHIMURIUM, Strain/Indicator: TA1538, Metabolic Activation: RAT, LIVER, S-9, AROCLOR 1254, Method: STANDARD PLATE

Compound: Cc1ccc([N+](=O)[O-])cc1N=O
- mutagenic call (Test System: AMES SALMONELLA TYPHIMURIUM, Strain/Indicator: TA98, Metabolic Activation: NONE, Method: PREINCUBATION): active; positive
- mutagenic call (Test System: AMES SALMONELLA TYPHIMURIUM, Strain/Indicator: TA98, Metabolic Activation: NONE, Method: SUSPENSION/PLATE): inactive; negative
- mutagenic call (Test System: AMES SALMONELLA TYPHIMURIUM, Strain/Indicator: TA98, Metabolic Activation: RAT, LIVER, S-9, AROCLOR, Method: PREINCUBATION): active; positive
- mutagenic call (Test System: AMES SALMONELLA TYPHIMURIUM, Strain/Indicator: TA98, Metabolic Activation: RAT, LIVER, S-9, PHENOBARBITAL AND 5,6-BENZOFLAVONE, Method: SUSPENSION/PLATE): inactive; negative
- mutagenic call (Test System: AMES SALMONELLA TYPHIMURIUM, Strain/Indicator: TA100, Metabolic Activation: NONE, Method: SUSPENSION/PLATE): inactive; negative
- mutagenic call (Test System: AMES SALMONELLA TYPHIMURIUM, Strain/Indicator: TA100, Metabolic Activation: RAT, LIVER, S-9, PHENOBARBITAL AND 5,6-BENZOFLAVONE, Method: SUSPENSION/PLATE): inactive; negative

Compound: O=[N+]([O-])c1ccc(Oc2ccc(Cl)cc2Cl)cc1
- mutagenic call (Test System: AMES SALMONELLA TYPHIMURIUM, Strain/Indicator: TA98, Metabolic Activation: S-9, Method: STANDARD PLATE): inactive; negative
- mutagenic call [1]: active; positive
- mutagenic call (Test System: AMES SALMONELLA TYPHIMURIUM, Strain/Indicator: TA100, Metabolic Activation: S-9, Method: STANDARD PLATE): inactive; negative
- mutagenic call (Test System: AMES SALMONELLA TYPHIMURIUM, Strain/Indicator: TA100, Metabolic Activation: S-9 MIX, Method: STANDARD PLATE): active; positive
- mutagenic call (Test System: AMES SALMONELLA TYPHIMURIUM, Strain/Indicator: YG1021, Metabolic Activation: S-9, Method: STANDARD PLATE): inactive; negative
- mutagenic call (Test System: AMES SALMONELLA TYPHIMURIUM, Strain/Indicator: YG1024, Metabolic Activation: S-9, Method: STANDARD PLATE): inactive; negative
- mutagenic call (Test System: AMES SALMONELLA TYPHIMURIUM, Strain/Indicator: YG1026, Metabolic Activation: S-9, Method: STANDARD PLATE): active; positive
- mutagenic call (Test System: AMES SALMONELLA TYPHIMURIUM, Strain/Indicator: YG1029, Metabolic Activation: S-9, Method: STANDARD PLATE): active; positive
- mutagenic call (Test System: E. COLI, Strain/Indicator: WP2 UVRA, Metabolic Activation: HAMSTER, LIVER, S-9, AROCLOR 1254, Method: STANDARD PLATE): inactive; negative
- mutagenic call (Test System: E. COLI, Strain/Indicator: WP2 UVRA, Metabolic Activation: HAMSTER, LIVER, S-9, Method: STANDARD PLATE): inactive; negative
- mutagenic call (Test System: E. COLI, Strain/Indicator: WP2 UVRA, Metabolic Activation: MOUSE, LIVER, S-9, AROCLOR 1254, Method: STANDARD PLATE): inactive; negative
- mutagenic call (Test System: E. COLI, Strain/Indicator: WP2 UVRA, Metabolic Activation: MOUSE, LIVER, S-9, Method: STANDARD PLATE): inactive; negative
- mutagenic call (Test System: E. COLI, Strain/Indicator: WP2 UVRA, Metabolic Activation: NONE, Method: STANDARD PLATE): inactive; negative
- mutagenic call (Test System: E. COLI, Strain/Indicator: WP2 UVRA, Metabolic Activation: RAT, LIVER, S-9, AROCLOR 1254, Method: STANDARD PLATE): inactive; negative
- mutagenic call (Test System: E. COLI, Strain/Indicator: WP2 UVRA, Metabolic Activation: RAT, LIVER, S-9, Method: STANDARD PLATE): inactive; negative
- mutagenic call (Test System: MOUSE LYMPHOMA, Strain/Indicator: L5178Y (HPRT), Metabolic Activation: NONE, Method: SUSPENSION/PLATE): inactive; negative
- mutagenic call (Test System: MOUSE LYMPHOMA, Strain/Indicator: L5178Y (TK+/TK-), Metabolic Activation: NONE, Method: SUSPENSION/PLATE): inactive; negative

Compound: CN(C)CCNC(=O)c1cccc2c1Oc1ccccc1O2
- mutagenic call [2]: active; positive

Compound: CCON(OC(C)=O)C(=O)c1ccccc1
- mutagenic call [3]: active; positive
- mutagenic call [1]: active; positive
- mutagenic call (Test System: AMES SALMONELLA TYPHIMURIUM, Strain/Indicator: TA100, Metabolic Activation: RAT, S-9, AROCLOR, Method: STANDARD PLATE): active; positive

Compound: c1cc[n+]2c(c1)-c1cccc[n+]1CC2
- mutagenic call (Test System: AMES SALMONELLA TYPHIMURIUM, Strain/Indicator: TA102, Metabolic Activation: NONE, Method: STANDARD PLATE): inactive; negative
- mutagenic call (Test System: AMES SALMONELLA TYPHIMURIUM, Strain/Indicator: TA2638, Metabolic Activation: NONE, Method: STANDARD PLATE): inactive; negative
- mutagenic call (Test System: E. COLI, Strain/Indicator: WP2 (PKM101), Metabolic Activation: NONE, Method: STANDARD PLATE): inactive; negative
- mutagenic call (Test System: E. COLI, Strain/Indicator: WP2 UVRA (PKM101), Metabolic Activation: NONE, Method: STANDARD PLATE): inactive; negative

Compound: O=C(N[C@@H](Cc1ccc(Cl)cc1)C(=O)O)OCc1ccccc1
- mutagenic call (Test System: AMES SALMONELLA TYPHIMURIUM, Strain/Indicator: TA98, Metabolic Activation: NONE): inactive; negative
- mutagenic call (Test System: AMES SALMONELLA TYPHIMURIUM, Strain/Indicator: TA100, Metabolic Activation: NONE): active; positive
- mutagenic call (Test System: AMES SALMONELLA TYPHIMURIUM, Strain/Indicator: TA1535, Metabolic Activation: NONE): inactive; negative
- mutagenic call (Test System: AMES SALMONELLA TYPHIMURIUM, Strain/Indicator: TA1537, Metabolic Activation: NONE): inactive; negative
- mutagenic call (Test System: B. SUBTILIS, Strain/Indicator: BD190 REC, Metabolic Activation: NONE, Method: SPOT TEST): active; positive
- mutagenic call (Test System: E. COLI, Strain/Indicator: AB2462 UVRA, Metabolic Activation: NONE, Method: SPOT TEST): active; positive
- mutagenic call (Test System: E. COLI, Strain/Indicator: WP6 POLA, Metabolic Activation: NONE, Method: SPOT TEST): inactive; negative

Compound: C=C(OC)[C@H](CSCC(Br)c1ccccc1)NC(=O)CC (some centres not stated)
- mutagenic call (Test System: AMES SALMONELLA TYPHIMURIUM, Strain/Indicator: TA100, Metabolic Activation: NONE, Method: SPOT TEST): inactive; negative

Compound: CC(=O)N(Nc1ccc2c(c1)Cc1ccccc1-2)c1ccc2c(c1)Cc1ccccc1-2
- mutagenic call [4]: active; positive

Compound: C=CC(=O)OCCCCOC(=O)C=C
- mutagenic call [3]: inactive; negative
- mutagenic call [4]: inactive; negative
- mutagenic call (Test System: AMES SALMONELLA TYPHIMURIUM, Strain/Indicator: TA98, Metabolic Activation: RAT, LIVER, S-9, SODIUM PHENOBARBITAL, Method: STANDARD PLATE): inactive; negative
- mutagenic call [1]: inactive; negative
- mutagenic call [5]: inactive; negative
- mutagenic call (Test System: AMES SALMONELLA TYPHIMURIUM, Strain/Indicator: TA100, Metabolic Activation: RAT, LIVER, S-9, SODIUM PHENOBARBITAL, Method: STANDARD PLATE): inactive; negative
- mutagenic call [6]: inactive; negative
- mutagenic call [7]: inactive; negative
- mutagenic call (Test System: AMES SALMONELLA TYPHIMURIUM, Strain/Indicator: TA1535, Metabolic Activation: RAT, LIVER, S-9, SODIUM PHENOBARBITAL, Method: STANDARD PLATE): inactive; negative
- mutagenic call [2]: inactive; negative
- mutagenic call [8]: inactive; negative
- mutagenic call (Test System: AMES SALMONELLA TYPHIMURIUM, Strain/Indicator: TA1537, Metabolic Activation: RAT, LIVER, S-9, SODIUM PHENOBARBITAL, Method: STANDARD PLATE): inactive; negative
- mutagenic call [9]: inactive; negative
- mutagenic call [10]: inactive; negative
- mutagenic call (Test System: AMES SALMONELLA TYPHIMURIUM, Strain/Indicator: TA1538, Metabolic Activation: RAT, LIVER, S-9, SODIUM PHENOBARBITAL, Method: STANDARD PLATE): inactive; negative

Compound: O=C(O)CCCc1c[nH]c2ccccc12
- mutagenic call (Test System: AMES SALMONELLA TYPHIMURIUM, Strain/Indicator: TA97A, Metabolic Activation: NONE, Method: STANDARD PLATE): inactive; negative
- mutagenic call (Test System: AMES SALMONELLA TYPHIMURIUM, Strain/Indicator: TA97A, Metabolic Activation: RAT, LIVER, S-9, AROCLOR 1254, Method: STANDARD PLATE): inactive; negative
- mutagenic call [3]: inactive; negative
- mutagenic call [4]: inactive; negative
- mutagenic call [1]: inactive; negative
- mutagenic call [5]: inactive; negative
- mutagenic call [6]: inactive; negative
- mutagenic call [7]: inactive; negative
- mutagenic call [2]: inactive; negative
- mutagenic call [8]: inactive; negative
- mutagenic call [9]: inactive; negative
- mutagenic call [10]: inactive; negative
